Assay results taken from PMC10877577 (ACS Chemical Biology, 2024).
“Also recorded” adds a separate entry of the source. Like-named read-outs stand apart in the source and are kept apart here.

Tests used:
Nalm6 EGFR+ tumor = assay: Xenograft model with NALM6, BLI readout; format: in vivo, NSG mice; details: minocycline hydrochloride 0.4 mg i.p. every 2–3 days; day 7 to 13 post CAR-T
Procedure: All animal studies were carried out in accordance with a UK Home Office-approved project license and were approved by the UCL Biological Services Ethical Review Committee. NSG mice (female, aged 6–10 weeks) were acquired from Charles River Laboratories and raised under pathogen-free conditions. On day 4, 0.5 × 10^6 Nalm6 cells engineered to express EGFR and HA-luciferase were injected intravenously into NSG mice. Tumor engraftment was assessed through bioluminescence imaging, employing the IVIS Spectrum system (PerkinElmer) following intraperitoneal injection of 2 mg D-luciferin. Photon emission from EGFR^+ NALM6-FLuc cells, expressed in photon per second per cm^2 per steradian, was quantified using Living Image software (PerkinElmer). On day 0, mice were randomly assigned to different cohorts prior to intravenous injection of 1 × 10^6 CAR T cells. The experiment was conducted without blinding; however, the use of bioluminescence imaging provides an objective assessment of tumor growth in this model. […] Intraperitoneal injection of 100 μL (0.4 mg) was administered every 2–3 days.

aMinoC1 sdAb = assay: ELISA of CX7C-muIgG2a-Fc peptide fusions on aMinoC1 with or without minocycline; format: binding, alpaca; details: 1 μM minocycline
[1] = tested on: MinoCAR-transduced PBMC against SupT1-EGFR+ target cells; assay: Cytokine release of MinoCAR PBMCs; format: cell-based, human; details: minocycline supplementation, 24 h, 1:2 E/T
Procedure: (§1) Transduced CAR T cells were determined by staining for the transduction marker RQR8 and normalized by the addition of nontransduced T cells. Effector cells were cocultured with 5.0 × 10^4 number of target cells (SupT1-NT, SupT1-EGFR+, SKOV3-mKate) to achieve the desired effector cell to target ratio. Where appropriate, minocycline was supplemented as a part of the culture conditions. Cocultures were incubated for 24–72 h at 37 °C and 5% CO2. After incubation, plates were centrifuged at 400g for 5 min, and the supernatant containing secreted cytokines was collected for cytokine analysis. Cells were stained with anti-hCD34-APC and anti-CD3-PeCy7 to differentiate effector T cells and target cells. Cells were washed with 300 μL o PBS and stained with SYTOX Blue Dead Cell Stain dye. The percentage of target cell survival was measured relative to the number of live target cells cocultured with nonspecific CAR T cells or nontransduced PBMCs.
(§2) IFN-γ, IL2, and IL12 secretion was measured by collecting the supernatant from the respective cell-based assay and frozen at −20 °C prior to analysis by ELISA. IFN-γ, IL2, and IL12 ELISAs were carried out using the Human IFN-γ ELISA MAX Deluxe kit, Human IL2 ELISA MAX Deluxe kit, and Human IL12 (p70) ELISA MAX Deluxe kit in accordance with the manufacturer’s instructions (BioLegend).

[2] = tested on: MinoCAR-transduced PBMC against SupT1-EGFR+ target cells; format: cell-based; details: compared to 0 μM minocycline
Procedure: as §1, with “Where appropriate, minocycline was supplemented as a part of the culture conditions.” left out

[3] = tested on: GWARA-flexi-IL12 secretion from transduced PBMCs; assay: IL12 secretion assay (KDEL retention system); format: cell-based, human; details: minocycline up to 2.5 μM
Procedure: as §2
Transduced PBMCs were stained for the independent HA expression marker by using an anti-HA-PE antibody to determine transduction efficiency. Cells were normalized to 60% using nontransduced T cells prior to assay set up. For the assay set up, 0.5 × 10^4 transduced cells were cultured in RPMI (RPMI-1640) supplemented with 10% fetal bovine serum (FBS), 2 mM GlutaMAX, and IL2 at a concentration of 100 UI/mL. […] IL12 ELISA was carried out following manufacturer’s instructions (BioLegend, 431704).

[4] = tested on: SupT1 GWARA-CD8stk-CD28TM and SupT1 aMinoC1-CD8stk-CD28TM cells; assay: Cell–cell binding assay (aggregate formation); format: cell-based, human; details: 10 μM minocycline, 24 h time course
Procedure: SupT1 cells were transduced to express GWARA-CD8a spacer-CD28TM-2A-mCherry and aMinoC1 sdAb-CD8 spacer-CD28TM-2A-eGFP. 0.5 × 10^4 cells were cocultured in RPMI (RPMI-1640) supplemented with 10% fetal bovine serum (FBS) and 2 mM GlutaMAX. […] Images were captured using an IncuCyte real-time imager. Time-course images were analyzed using ImageJ (NIH v1.53t) using an image analyzer (20 px^2-infinite size, 0.0–1.0 circularity).

[5] = tested on: MinoUniCAR-transduced PBMCs against SupT1-EGFR+ cells; assay: MinoUniCAR cytotoxicity with EGFR-peptide adaptor; format: cell-based, human; details: 10 μM minocycline, 24 h, 1:2 E/T
Procedure: as §1
Transduced PBMCs were stained using RQR8 expression and V5 markers. Cells were then normalized to 50% efficiency by diluting with nontransduced T cells. The tumor-targeting adaptor protein (EGFR sdAb) fused to the GWARA peptide was separately expressed by CHO cell transient transfection and purified by His-tag chromatography. […] IFN-γ secretion was measured as described above.

Q: `CN(C)c1ccc(O)c2c1C[C@H]1C[C@H]3[C@H](N(C)C)C(O)=C(C(N)=O)C(=O)[C@@]3(O)C(O)=C1C2=O` [minocycline] was tested. Which “effect of minocycline on MinoCAR efficacy (BLI)” value (Nalm6 EGFR+ tumor) did it give?
A: Significant inhibition of MinoCAR; also recorded: significantly reduced MinoCAR efficacy

Q: What about the “ELISA detection of peptide-Fc on aMinoC1 in presence of minocycline” value (aMinoC1 sdAb) of the same compound?
A: out-competed peptide-Fc conjugates

Q: What about the “reduction (minus) of IFN-γ secretion” value [1] of the same compound?
A: 2.7 fold

Q: And the “reduction (minus) of IL2 secretion” value [1]?
A: 1.9 fold

Q: What about the “increase in target cell survival” value ([2]; 24 h) of the same compound?
A: 2.5 fold

Q: What about the “increase in target cell survival” value ([2]; 72 h) of the same compound?
A: 35 fold

Q: And the IL12 release ([3]; day 2, aMinoC1-KDEL construct)?
A: up to 150 pg/mL

Q: What about the IL12 release ([3]; day 7, aMinoC1-KDEL construct) of the same compound?
A: ≤ 2.2 µg/mL

Q: And the cell aggregate formation [4]?
A: random distribution of cells without a clear spatial organization

Q: What about the target cell survival [5] of the same compound?
A: 95%
